# Measured values: US10576062B2, “Carbamoyloxymethyl triazole cyclohexyl acids as LPA antagonists” (Bristol-Myers Squibb Company, priority 2016, dated 2020)
# Target: T1, human LPA1 (Homo sapiens, UniProt Q92633)
# T1 construct: expressed in transfected cells; host or cells: Chinese hamster ovary (CHO) cells
# Experiment: LPA1 functional antagonist assay (LPA-induced calcium flux)
# Type: cell-based
# Details: CHO cells overexpressing human LPA1; inhibition of calcium flux induced by 10 nM LPA; read-out: hLPA1 IC50
# How it was run: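 CHO cells overexpressing human LPA1, loaded with calcium dye 30 min at 37° C, were preincubated 20 min at room temperature with compound (0.08 nM–5 μM, 0.5% DMSO) in HBSS/20 mM HEPES/0.1% fatty acid-free BSA.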
# T1 sequence (Q92633 whole entry): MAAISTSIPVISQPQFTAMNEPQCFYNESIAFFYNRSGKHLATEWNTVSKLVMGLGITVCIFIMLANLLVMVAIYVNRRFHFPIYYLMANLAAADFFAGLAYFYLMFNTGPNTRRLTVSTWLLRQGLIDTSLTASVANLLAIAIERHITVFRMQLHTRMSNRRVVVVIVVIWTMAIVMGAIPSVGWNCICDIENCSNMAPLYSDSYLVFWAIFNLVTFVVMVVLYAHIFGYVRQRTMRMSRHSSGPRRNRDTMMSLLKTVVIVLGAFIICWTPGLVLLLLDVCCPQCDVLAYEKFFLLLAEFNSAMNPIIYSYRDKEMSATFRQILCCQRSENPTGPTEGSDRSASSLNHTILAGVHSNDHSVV
row,SMILES,IC50
1,"CCc1nc(-c2nnn(C)c2COC(=O)N(C)CC2CC2)ccc1O[C@H]1CCC[C@H](C(=O)O)C1 [Example 194, (1S,3S)-3-((6-(5-((((cyclopropylmethyl)(methyl)carbamoyl)oxy)methyl)-1-methyl-1H-1,2,3-triazol-4-yl)-2-ethylpyridin-3-yl)oxy)cyclohexane-1-carboxylic acid]",14 nM
2,"CCc1nc(-c2nnn(C)c2COC(=O)N(C)C2CCCC2)ccc1O[C@H]1CCC[C@H](C(=O)O)C1 [Example 195, (1S,3S)-3-((6-(5-(((cyclopentyl(methyl)carbamoyl)oxy)methyl)-1-methyl-1H-1,2,3-triazol-4-yl)-2-ethylpyridin-3-yl)oxy)cyclohexane-1-carboxylic acid]",11 nM
3,"CCc1nc(-c2nnn(C)c2COC(=O)N(C)CC(C)C)ccc1O[C@H]1CCC[C@H](C(=O)O)C1 [Example 197, (1S,3S)-3-((2-ethyl-6-(5-(((isobutyl(methyl)carbamoyl)oxy)methyl)-1-methyl-1H-1,2,3-triazol-4-yl)pyridin-3-yl)oxy)cyclohexane-1-carboxylic acid]",27 nM
4,"CCc1nc(-c2nnn(C)c2COC(=O)NCc2ccccc2)ccc1O[C@H]1CCC[C@H](C(=O)O)C1 [Example 198, (1S,3S)-3-((6-(5-(((benzylcarbamoyl)oxy)methyl)-1-methyl-1H-1,2,3-triazol-4-yl)-2-ethylpyridin-3-yl)oxy)cyclohexane-1-carboxylic acid]",46 nM
5,"CCCCN(C)C(=O)OCc1c(-c2ccc(O[C@H]3CCC[C@H](C(=O)O)C3)c(CC)n2)nnn1C [Example 199, (1S,3S)-3-((6-(5-(((butyl(methyl)carbamoyl)oxy)methyl)-1-methyl-1H-1,2,3-triazol-4-yl)-2-ethylpyridin-3-yl)oxy)cyclohexane-1-carboxylic acid]",7 nM
6,"CCCN(C)C(=O)OCc1c(-c2ccc(O[C@H]3CCC[C@H](C(=O)O)C3)c(CC)n2)nnn1C [Example 200, (1S,3S)-3-((2-ethyl-6-(1-methyl-5-(((methyl(propyl)carbamoyl)oxy)methyl)-1H-1,2,3-triazol-4-yl)pyridin-3-yl)oxy)cyclohexane-1-carboxylic acid]",11 nM
7,"CCc1nc(-c2nnn(C)c2COC(=O)N(C)Cc2ccccc2)ccc1O[C@H]1CCC[C@H](C(=O)O)C1 [Example 201, (1S,3S)-3-((6-(5-(((benzyl(methyl)carbamoyl)oxy)methyl)-1-methyl-1H-1,2,3-triazol-4-yl)-2-ethylpyridin-3-yl)oxy)cyclohexane-1-carboxylic acid]",25 nM
8,"CCc1nc(-c2nnn(C)c2COC(=O)N(C)CC)ccc1O[C@H]1CCC[C@H](C(=O)O)C1 [Example 202, (1S,3S)-3-((2-ethyl-6-(5-(((ethyl(methyl)carbamoyl)oxy)methyl)-1-methyl-1H-1,2,3-triazol-4-yl)pyridin-3-yl)oxy)cyclohexane-1-carboxylic acid]",160 nM
9,"CCc1nc(-c2nnn(C)c2COC(=O)N(C)C2CCC2)ccc1O[C@H]1CCC[C@H](C(=O)O)C1 [Example 203, (1S,3S)-3-((6-(5-(((cyclobutyl(methyl)carbamoyl)oxy)methyl)-1-methyl-1H-1,2,3-triazol-4-yl)-2-ethylpyridin-3-yl)oxy)cyclohexane-1-carboxylic acid]",8 nM
10,"CCc1nc(-c2nnn(C)c2COC(=O)N2CC(C)(C)C2)ccc1O[C@H]1CCC[C@H](C(=O)O)C1 [Example 204, (1S,3S)-3-((6-(5-(((3,3-dimethylazetidine-1-carbonyl)oxy)methyl)-1-methyl-1H-1,2,3-triazol-4-yl)-2-ethylpyridin-3-yl)oxy)cyclohexane-1-carboxylic acid]",102 nM
11,"CCc1nc(-c2nnn(C)c2COC(=O)NC23CC(C2)C3)ccc1O[C@H]1CCC[C@H](C(=O)O)C1 [Example 205, (1S,3S)-3-((6-(5-(((bicyclo[1.1.1]pentan-1-ylcarbamoyl)oxy)methyl)-1-methyl-1H-1,2,3-triazol-4-yl)-2-ethylpyridin-3-yl)oxy)cyclohexane-1-carboxylic acid]",842 nM
12,"CCc1nc(-c2nnn(C)c2COC(=O)N(C)C23CC(C2)C3)ccc1O[C@H]1CCC[C@H](C(=O)O)C1 [Example 206, (1S,3S)-3-((6-(5-(((bicyclo[1.1.1]pentan-1-yl(methyl)carbamoyl)oxy)methyl)-1-methyl-1H-1,2,3-triazol-4-yl)-2-ethylpyridin-3-yl)oxy)cyclohexane-1-carboxylic acid]",34 nM
13,"CCCC1(N(C)C(=O)OCc2c(-c3ccc(O[C@H]4CCC[C@H](C(=O)O)C4)c(CC)n3)nnn2C)CC1 [Example 207, (1S,3S)-3-((2-ethyl-6-(1-methyl-5-(((methyl(1-propylcyclopropyl)carbamoyl)oxy)methyl)-1H-1,2,3-triazol-4-yl)pyridin-3-yl)oxy)cyclohexane-1-carboxylic acid]",133 nM
14,"CCc1nc(-c2nnn(C)c2COC(=O)N(C)CCC(C)C)ccc1O[C@H]1CCC[C@H](C(=O)O)C1 [Example 208, (1S,3S)-3-((2-ethyl-6-(5-(((isopentyl(methyl)carbamoyl)oxy)methyl)-1-methyl-1H-1,2,3-triazol-4-yl)pyridin-3-yl)oxy)cyclohexane-1-carboxylic acid]",26 nM
15,"CCc1nc(-c2nnn(C)c2COC(=O)N(C)CCC2CC2)ccc1O[C@H]1CCC[C@H](C(=O)O)C1 [Example 209, (1S,3S)-3-((6-(5-((((2-cyclopropylethyl)(methyl)carbamoyl)oxy)methyl)-1-methyl-1H-1,2,3-triazol-4-yl)-2-ethylpyridin-3-yl)oxy)cyclohexane-1-carboxylic acid]",22 nM
16,"CCc1nc(-c2nnn(C)c2COC(=O)N2CC3(CCC3)C2)ccc1O[C@H]1CCC[C@H](C(=O)O)C1 [Example 210, (1S,3S)-3-((6-(5-(((2-azaspiro[3.3]heptane-2-carbonyl)oxy)methyl)-1-methyl-1H-1,2,3-triazol-4-yl)-2-ethylpyridin-3-yl)oxy)cyclohexane-1-carboxylic acid]",67 nM
17,"CCc1nc(-c2nnn(C)c2COC(=O)N2CCC3(CC3)C2)ccc1O[C@H]1CCC[C@H](C(=O)O)C1 [Example 211, (1S,3S)-3-((6-(5-(((5-azaspiro[2.4]heptane-5-carbonyl)oxy)methyl)-1-methyl-1H-1,2,3-triazol-4-yl)-2-ethylpyridin-3-yl)oxy)cyclohexane-1-carboxylic acid]",47 nM

# Same assay, conditions: human LPA1; read-out: hLPA1 IC50
row,SMILES,IC50
1,"CN(C(=O)OCc1c(-c2ccc(O[C@H]3CCC[C@H](C(=O)O)C3)cn2)nnn1C)C1CC(C)(C)C1 [Example 181, (1S,3S)-3-((6-(5-((((3,3-dimethylcyclobutyl)(methyl)carbamoyl)oxy)methyl)-1-methyl-1H-1,2,3-triazol-4-yl)pyridin-3-yl)oxy)cyclohexane-1-carboxylic acid]",101 nM
2,"CN(C(=O)OCc1c(-c2ccc(O[C@H]3CCC[C@H](C(=O)O)C3)cn2)nnn1C)C1CC2(CC2)C1 [Example 183, (1S,3S)-3-((6-(1-methyl-5-(((methyl(spiro[2.3]hexan-5-yl)carbamoyl)oxy)methyl)-1H-1,2,3-triazol-4-yl)pyridin-3-yl)oxy)cyclohexane-1-carboxylic acid]",20 nM
3,"Cc1nc(-c2nnn(C)c2COC(=O)N(C)CCC(C)(C)F)ccc1O[C@H]1CCC[C@H](C(=O)O)C1 [Example 187, (1S,3S)-3-((6-(5-((((3-fluoro-3-methylbutyl)(methyl)carbamoyl)oxy)methyl)-1-methyl-1H-1,2,3-triazol-4-yl)-2-methylpyridin-3-yl)oxy)cyclohexane-1-carboxylic acid]",50 nM
4,"CN(CCC(C)(C)F)C(=O)OCc1c(-c2ccc(O[C@H]3CCC[C@H](C(=O)O)C3)cn2)nnn1C [Example 188, (1S,3S)-3-((6-(5-((((3-fluoro-3-methylbutyl)(methyl)carbamoyl)oxy)methyl)-1-methyl-1H-1,2,3-triazol-4-yl)pyridin-3-yl)oxy)cyclohexane-1-carboxylic acid]",32 nM
5,"Cc1nc(-c2nnn(C)c2COC(=O)N(C)CC2(F)CCC2)ccc1O[C@H]1CCC[C@H](C(=O)O)C1 [Example 189, (1S,3S)-3-((6-(5-(((((1-fluorocyclobutyl)methyl)(methyl)carbamoyl)oxy)methyl)-1-methyl-1H-1,2,3-triazol-4-yl)-2-methylpyridin-3-yl)oxy)cyclohexane-1-carboxylic acid]",120 nM
6,"Cc1nc(-c2nnn(C)c2COC(=O)N(C)CCCF)ccc1O[C@H]1CCC[C@H](C(=O)O)C1 [Example 190, (1S,3S)-3-((6-(5-((((3-fluoropropyl)(methyl)carbamoyl)oxy)methyl)-1-methyl-1H-1,2,3-triazol-4-yl)-2-methylpyridin-3-yl)oxy)cyclohexane-1-carboxylic acid]",81 nM
7,"Cc1nc(-c2nnn(C)c2COC(=O)NCCCCF)ccc1O[C@H]1CCC[C@H](C(=O)O)C1 [Example 191, (1S,3S)-3-((6-(5-((((4-fluorobutyl)carbamoyl)oxy)methyl)-1-methyl-1H-1,2,3-triazol-4-yl)-2-methylpyridin-3-yl)oxy)cyclohexane-1-carboxylic acid]",553 nM
8,"Cc1nc(-c2nnn(C)c2COC(=O)N(C)CCCCF)ccc1O[C@H]1CCC[C@H](C(=O)O)C1 [Example 192, (1S,3S)-3-((6-(5-((((4-fluorobutyl)(methyl)carbamoyl)oxy)methyl)-1-methyl-1H-1,2,3-triazol-4-yl)-2-methylpyridin-3-yl)oxy)cyclohexane-1-carboxylic acid]",36 nM
9,"CCCN(C)C(=O)OCc1c(-c2ccc(O[C@@H]3CCC[C@@H](C(=O)O)C3)c(C)n2)nnn1C [Example 193, (1R,3R)-3-((2-methyl-6-(1-methyl-5-(((methyl(propyl)carbamoyl)oxy)methyl)-1H-1,2,3-triazol-4-yl)pyridin-3-yl)oxy)cyclohexane-1-carboxylic acid]",1700 nM
